Data published in US4045564A, “Benzimidazole derivatives useful as gastric acid secretion inhibitors” (AB Hassle, priority 1974, dated 1977).

Tests used:
[1] = system: gastric acid secretion induced with pentagastrin; assay: Duration of the effect in conscious dog provided with a ventricel fistula, gastric acid secretion induced with pentagastrin; format: in vivo
Procedure: The compounds of Examples 1, 3, and 9 have also been tested with regard to the duration of the effect obtained in conscious dog provided with a ventricel fistula, the gastric acid secretion being induced with pentagastrin. The amount of gastric acid secreted before the administration of active agent was determined using a titrator, whereupon the gastric acid secretion was determined using a titrator after administration. In the table below the inhibition in % of basic secretion has been given for two different dose levels.

[2] = system: pentagastrin induced gastric acid secretion; assay: Inhibition of pentagastrin induced gastric acid secretion in acute dog experiments with a modified perfusion technique (anaesthetized dog); format: in vivo; conditions: 10 mg/kg body weight, given into the duodenum in 0.5% Methocel suspension, pentagastrin 1-2 μg/kg
Procedure: The testing was performed in acute dog experiments with a modified perfusion technique.
The stomach of the anaesthetized dog was provided with one tube through the oesophagus for instillation of fluid and another tube via the ligated pylorus through duodenum for drainage of fluid. Saline was instilled in a volume of 5 ml/kg body weight, and the instillation fluid was changed every 15 minutes.
The samples collected were titrated to pH 7.0 with 0.04 N NaOH using a Radiometer automatic titrator, and the acid output per 15 minutes was calculated (collection periods).
Gastric acid secretion was induced by pentagastrin in 1-2 μg/kg.
The amount of active agent administered was 10 mg/kg body weight.

SMILES | % inhibition of gastric acid secretion ([1]; 1 mg/kg, 1 hr) [%] | % inhibition of gastric acid secretion ([1]; 1 mg/kg, 2 hrs) [%] | % inhibition of gastric acid secretion ([1]; 1 mg/kg, 3 hrs) [%] | % inhibition of gastric acid secretion ([1]; 2 mg/kg, 1 hr) [%] | % inhibition of gastric acid secretion ([1]; 2 mg/kg, 2 hrs) [%] | % inhibition of gastric acid secretion ([1]; 2 mg/kg, 3 hrs) [%] | % inhibition of the pentagastrin induced gastric acid secretion [2] [%]
Cc1cccc2[nH]c(SCc3ccccn3)nc12 [Example 1, [2-pyridylmethylthio]-4-methyl-2-benzimidazole] | 20 | 25 | 25 | 50 | 60 | 65 | 89
CCc1ccc2nc(SCc3ccccn3)[nH]c2c1 [Example 3, 2-[2-pyridylmethylthio]-(5-ethyl)-benzimidazole] | 20 | 25 | 25 | 50 | 60 | 65 | 86
COc1ccc2[nH]c(SCc3ccccn3)nc2c1 [Example 5] | – | – | – | – | – | – | 40
CCOC(=O)c1ccc2[nH]c(SCc3ccccn3)nc2c1 [Example 9] | 20 | 25 | 25 | 50 | 60 | 65 | 70
CC(=O)n1c(SCc2ccccn2)nc2ccccc21 [Example 16, 2-[2-pyridylmethylthio]-N-acetylbenzimidazole] | – | – | – | – | – | – | 80
COC(=O)n1c(SCc2ccccn2)nc2ccccc21 [Example 17, 2-[2-pyridylmethylthio]-N-methoxycarbonylbenzimidazole] | – | – | – | – | – | – | 76
